We go through 3 compounds from patent US20230016424A1, “HYBRID AMIDE DERIVATIVES OF AMPHOTERICIN B” (The Board of Trustees of the University of Illinois, priority 2019, published 2023).

A short description of one series: Plasma Stability. The format is in vitro ADME. The method, then: Plasma Stability: Procedure: […] Plasma was warmed to 37° C. prior to the experiment and centrifuged for 5 mins at 4000 rpm. […] Each time point was monitored in triplicate (0, 10, 30, 60 and 120 min). 4 uL/well aliquot of the working solution was mixed to the blank plasma and incubated at 37° C. AT each time point samples were quenched with ACN stop solution containing 200 ng/ml Tolbutamide & 200 ng/ml Labetalol at 1:3 ratio and mix well on shaker for 10 min then centrifuge at 4000 rpm for 15 min. A 100 ul aliquot of supernatant was mixed with 100 μL of ultra-pure and submitted for LC-MS/MS analysis.

Series [1] is described as follows: Liver Microsome stability (In Vitro Metabolism). The format is in vitro ADME. Conditions: for Remaining (T = NCF60 min): no cofactor 60 min. As for the experimental part: Working Compound solution: 10 uM in 50 mM potassium phosphate buffer with 9% MeOH and 1% DMSO
Microsome solution: working concentration 0.625 mg/ml
Stopping solution: Cold ACN with 200 ng/ml Tolbutamide and 200 ng/ml Labetalol (4° C.)
Procedure: In the well plates (T5, T10, T20, T30, T60, NCF60 (no cofactor 60)) 10 uL of the compound/control working solution was added (except T0 and matric blank) followed by microsome solution (80 uL) and the mixture was incubated at 37 C for about 10 mins. A solution of potassium phosphate (10 ul of 50 mM) was added to NCF60 well, incubated at 37 C and time counting started. After prewarming 10 ul of NADPH regenerating solution was added to each plate to start the reaction. At different time point 300 uL/well of stopping solution to terminate the reaction. The sampling plates were shaken for 10 mins and the centrifuged for 20 mins at 4000 rpm. The supernatant was half diluted with ultra pure water and the analyzed using LCMS.
In general terms: Microsomes from liver hold many membrane-bound enzymes, among them those of drug oxidation.

The subject of series [2] is C. albicans SN250, C. albicans, C. krusei, C. glabrata, C. tropicalis, A. fumigatus 91, 1163, 1100. The series is described as follows: Average MIC over the tested strains. Conditions: Table 7, C16 amide AmB variants. In kind it is cell-based.

On to `CC1C=CC=CC=CC=CC=CC=CC=CC(OC2OC(C)C(O)C(N)C2O)CC2OC(O)(CC(O)CC(O)C(O)CCC(O)CC(O)CC(=O)OC(C)C(C)C1O)CC(O)C2C(=O)NCCN` (centres unmarked) [AM], for which, in the series “Plasma Stability” (Human Plasma), the “% Remaining at 120 min” value is 102% and the “Half Life” value was more than 4.82 h. Besides, in the series “Plasma Stability” (Rat Plasma), the “% Remaining at 120 min” value is 118% and the “Half Life” value was more than 4.82 h. Besides, in series [1] (Dog liver microsomes), the CL was less than 9.6 µL/min/mg, the CLint is given as less than 14 mL/min/kg, the “Remaining (T = 60 min)” value came to 107% and the T1/2 is more than 2.42 h. For the same compound, the “Remaining (T = NCF60 min)” value in series [1] (Dog liver microsomes) is given as 109%. Moreover, in series [1] (Human liver microsomes), the CL was less than 9.6 µL/min/mg, the CLint is recorded as less than 8.6 mL/min/kg, the “Remaining (T = 60 min)” value turned out to be 101% and the T1/2 was more than 2.42 h. The “Remaining (T = NCF60 min)” value in series [1] (Human liver microsomes) amounted to 115%. Further, in series [1] (Monkey liver microsomes), the CL is less than 9.6 µL/min/mg, the CLint was less than 13 mL/min/kg, the “Remaining (T = 60 min)” value was 113% and the T1/2 is more than 2.42 h. Moreover, the “Remaining (T = NCF60 min)” value in series [1] (Monkey liver microsomes) is on record as 121%. Moreover, in series [1] (Mouse liver microsomes), the CL was less than 9.6 µL/min/mg, the CLint is less than 38 mL/min/kg, the “Remaining (T = 60 min)” value turned out to be 109% and the T1/2 is more than 2.42 h. The “Remaining (T = NCF60 min)” value in series [1] (Mouse liver microsomes) was 176%. Besides, in series [1] (Rat liver microsomes), the CL is less than 9.6 µL/min/mg, the CLint is less than 17 mL/min/kg, the “Remaining (T = 60 min)” value came to 113% and the T1/2 was more than 2.42 h. For the same compound, the “Remaining (T = NCF60 min)” value in series [1] (Rat liver microsomes) turned out to be 83.1%.
Regarding `COC(=O)C(Cc1c[nH]cn1)NC(=O)C1C(O)CC2(O)CC(O)CC(O)C(O)CCC(O)CC(O)CC(=O)OC(C)C(C)C(O)C(C)C=CC=CC=CC=CC=CC=CC=CC(OC3OC(C)C(O)C(N)C3O)CC1O2` (centres unmarked) [AL], in “Plasma Stability” (Human Plasma), the “% Remaining at 120 min” value is listed as 107% and the “Half Life” value was more than 4.82 h. Also, in “Plasma Stability” (Rat Plasma), the “% Remaining at 120 min” value is given as 111% and the “Half Life” value was more than 4.82 h. In addition, in series [1] (Dog liver microsomes), the CL is less than 9.6 µL/min/mg, the CLint is recorded as less than 14 mL/min/kg, the “Remaining (T = 60 min)” value amounted to 101% and the T1/2 is more than 2.42 h. In series [1] (Dog liver microsomes), the “Remaining (T = NCF60 min)” value is 87.1%. In series [1] (Human liver microsomes), the CL was less than 9.6 µL/min/mg, the CLint is less than 8.6 mL/min/kg, the “Remaining (T = 60 min)” value came to 113% and the T1/2 is more than 2.42 h. Moreover, the “Remaining (T = NCF60 min)” value in series [1] (Human liver microsomes) was determined as 96.8%. For the same compound, in series [1] (Monkey liver microsomes), the CL was less than 9.6 µL/min/mg, the CLint is reported as less than 14 mL/min/kg, the “Remaining (T = 60 min)” value is recorded as 107% and the T1/2 is more than 2.42 h. In addition, in series [1] (Monkey liver microsomes), the “Remaining (T = NCF60 min)” value was determined as 106%. In addition, in series [1] (Mouse liver microsomes), the CL was less than 9.6 µL/min/mg, the CLint is less than 38 mL/min/kg, the “Remaining (T = 60 min)” value stood at 127% and the T1/2 was more than 2.42 h. Besides, in series [1] (Mouse liver microsomes), the “Remaining (T = NCF60 min)” value turned out to be 139%. Besides, in series [1] (Rat liver microsomes), the CL was less than 9.6 µL/min/mg, the CLint was less than 17 mL/min/kg, the “Remaining (T = 60 min)” value is reported as 132% and the T1/2 was more than 2.42 h. In addition, the “Remaining (T = NCF60 min)” value in series [1] (Rat liver microsomes) is reported as 75.4%.
Regarding `CC1C=CC=CC=CC=CC=CC=CC=CC(OC2OC(C)C(O)C(N)C2O)CC2OC(O)(CC(O)CC(O)C(O)CCC(O)CC(O)CC(=O)OC(C)C(C)C1O)CC(O)C2C(=O)N(CO)CCO` (centres unmarked) [DW], in series [2], the “MIC (Average Minimum Inhibition Concentration)” value amounted to 0.419 µM.
